“Also recorded” adds a separate entry of the source. Where two headings read alike, the source gives them in different places. Blank lines part the entries; values can stand above or below the compound they belong to.
Tests used:
[1] = target: T1, PRD25N (HIV-1 protease D25N mutant) (Human immunodeficiency virus type 1, UniProt P03367, D525N, form not given); experiment: DSC thermal denaturation of PRD25N with inhibitors; assay type: binding; conditions: inhibitor 28 μM, pH 4.8-5.0; unliganded PRD25N 58.4
[2] = target: T2, porcine pepsin (Sus scrofa, UniProt P00791); experiment: Kinetic inhibition of pepsin; assay type: biochemical; conditions: for inhibition at 16 µM: pH 3, read-out: Inhibition of pepsin under the screening conditions; for Inhibition of pepsin under the screening conditions: 175 μM substrate, pH 3.0-3.2, 28 °C
[3] = target: T2, porcine pepsin; experiment: ITC titration of pepsin with inhibitors; assay type: binding; conditions: for binding constant (KL) from curve fitting of ITC data, pepsin / stoichiometry of binding to pepsin: 28 °C; for binding constant (KL) from curve fitting of ITC data, pepsin: 50 mM sodium formate pH 3; for stoichiometry of binding to pepsin: pH 3
[4] = target: T2, porcine pepsin; experiment: DSC of pepsin with inhibitors; assay type: binding; conditions: DSC pH 3; […] (APV) or 2-fold (Ac-PEP) molar excess; unliganded pepsin Tm 74.2
[5] = target: PRD29N (HIV-1 protease D29N mutant) (Human immunodeficiency virus type 1, UniProt P03367, D529N, form not given); conditions: inhibitor 28 μM, pH 4.8-5.0; unliganded PRD29N 59.0
[6] = target: T3, mature HIV-1 protease (PR) (Human immunodeficiency virus type 1, UniProt P03367); conditions: cited from earlier work; for Binding constant (Ka), PR / ΔH of binding, PR / −TΔS of binding, PR: ITC, pH 5; for Kd: read-out: KL at 25 °C PR (lit.), 25 °C
[7] = tested on: P. falciparum; conditions: cited from earlier work
[8] = tested on: PRD25N (HIV-1 protease D25N mutant); experiment: DSC thermal denaturation of PRD25N with inhibitors; assay type: binding; conditions: DSC
[9] = target: T3, mature HIV-1 protease (PR); conditions: cited from earlier work
[10] = target: T1, PRD25N (HIV-1 protease D25N mutant); conditions: cited from earlier work
[11] = Tm with inhibitor minus Tm without, twofold molar excess

T2 sequence (P00791 60-385): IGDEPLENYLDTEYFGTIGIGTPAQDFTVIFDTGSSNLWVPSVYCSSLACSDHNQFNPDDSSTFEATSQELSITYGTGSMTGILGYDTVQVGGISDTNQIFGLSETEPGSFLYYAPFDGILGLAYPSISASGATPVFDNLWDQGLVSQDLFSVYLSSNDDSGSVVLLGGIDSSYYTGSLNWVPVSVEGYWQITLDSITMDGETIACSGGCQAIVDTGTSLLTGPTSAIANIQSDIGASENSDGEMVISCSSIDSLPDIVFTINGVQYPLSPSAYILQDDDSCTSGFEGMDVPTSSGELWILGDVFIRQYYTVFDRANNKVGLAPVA

Compound: CC(C)CN(C[C@@H](O)[C@H](Cc1ccccc1)NC(=O)O[C@H]1CCOC1)S(=O)(=O)c1ccc(N)cc1 [APV, Amprenavir]
- Tm PRD25N [1]: 58.7 °C
- Ki [2]: 300 nM
- inhibition at 16 µM [2]: 75 to 95%
- Kd [3]: 180 nM
- binding constant (KL) from curve fitting of ITC data, pepsin [3]: (5.5 ± 0.5) × 10^6 M
- stoichiometry of binding to pepsin ([3]; ITC): 0.97 ± 0.004
- Binding constant (Ka), pepsin ([3]; ITC, pH 3, 28 °C): (5.45 ± 0.5) × 10^6 M^−1
- ΔH of binding, pepsin ([3]; ITC, pH 3, 28 °C): -4.2 ± 0.3 kcal/mol
- −TΔS of binding, pepsin ([3]; ITC, pH 3, 28 °C): -5.1 kcal/mol
- ΔTm pepsin [4]: 2.7 °C
- Tm PRD29N [5]: 67.5 °C
- Binding constant (Ka), PR [6]: (5.0 ± 0.3) × 10^9 M^−1
- ΔH of binding, PR [6]: -6.9 kcal/mol
- −TΔS of binding, PR [6]: -6.3 kcal/mol
- growth of P. falciparum [7]: did not inhibit

Compound: COC(=O)N[C@H](C(=O)N[C@@H](Cc1ccccc1)[C@@H](O)CN(Cc1ccc(-c2ccccn2)cc1)NC(=O)[C@@H](NC(=O)OC)C(C)(C)C)C(C)(C)C [ATV, Atazanavir]
- Tm PRD25N [1]: 61.4 °C
- Inhibition of pepsin under the screening conditions ([2]; 16 μM inhibitor): undetected; also recorded: no detectable inhibition; also recorded: did not inhibit
- Tm PRD29N [5]: 71.7 °C
- Kd [6]: 0.035 nM

Compound: O=C1N(Cc2ccc(CO)cc2)[C@H](Cc2ccccc2)[C@H](O)[C@@H](O)[C@@H](Cc2ccccc2)N1Cc1ccc(CO)cc1 [DMP323]
- Tm PRD25N [1]: 67.3 °C
- ΔTm ratio ΔTm(PR)/ΔTm(PRD25N) [8]: 1-2
- Inhibition of pepsin under the screening conditions ([2]; 24 μM inhibitor): undetected
- Tm PRD29N [5]: 69.2 °C
- Kd [6]: 3.8 nM

Compound: CC(C)CN(C[C@@H](O)[C@H](Cc1ccccc1)NC(=O)O[C@H]1CO[C@H]2OCC[C@H]21)S(=O)(=O)c1ccc(N)cc1 [DRV, Darunavir]
- Ki [2]: 2140 nM
- Kd [3]: 1540 nM
- difference in ΔG for binding to the two enzymes (PR and pepsin) [3]: 7200 kcal/mol
- binding constant (KL) from curve fitting of ITC data, pepsin [3]: (6.5 ± 0.6) × 10^5 M
- stoichiometry of binding to pepsin ([3]; ITC): 0.90 ± 0.01
- −TΔS of binding, pepsin ([3]; ITC, pH 3, 28 °C): -2.0 kcal/mol
- Tm PRD29N [5]: 72.7 °C
- −TΔS of binding, PR [6]: -3.1 kcal/mol
- ΔTm PR [9, 11]: 22.4 °C
- Tm PR ([9]; twofold molar excess of inhibitor, unliganded PR 65.7): 88.1 °C
- ΔTm PRD25N [10, 11]: 3.1 °C
- Tm PRD25N ([10]; twofold molar excess of inhibitor, unliganded PRD25N 58.4): 61.5 °C

Compound: CC(C)(C)NC(=O)[C@@H]1CN(Cc2cccnc2)CCN1C[C@@H](O)C[C@@H](Cc1ccccc1)C(=O)N[C@H]1c2ccccc2C[C@H]1O [INV, Indinavir]
- Inhibition of pepsin under the screening conditions ([2]; 16 μM inhibitor): undetected; also recorded: did not inhibit

- inhibition at 16 µM [2]: ≤ 50%
Compound: Cc1cccc(C)c1OCC(=O)N[C@@H](Cc1ccccc1)[C@@H](O)C[C@H](Cc1ccccc1)NC(=O)[C@H](C(C)C)N1CCCNC1=O [LPV, Lopinavir]

- inhibition at 16 µM [2]: ≤ 50%
Compound: Cc1c(O)cccc1C(=O)N[C@@H](CSc1ccccc1)[C@H](O)CN1C[C@H]2CCCC[C@H]2C[C@H]1C(=O)NC(C)(C)C [NFV, Nelfinavir]

Compound: CC(C)c1nc(CN(C)C(=O)N[C@H](C(=O)N[C@@H](Cc2ccccc2)C[C@H](O)[C@H](Cc2ccccc2)NC(=O)OCc2cncs2)C(C)C)cs1 [RTV, Ritonavir]
- Tm PRD25N [1]: 61.1 °C
- inhibition at 16 µM [2]: 75 to 95%
- Tm PRD29N [5]: 66.1 °C
- Binding constant (Ka), PR [6]: (1.0 ± 0.1) × 10^10 M^−1
- ΔH of binding, PR [6]: -4.3 kcal/mol
- −TΔS of binding, PR [6]: -9.4 kcal/mol

Compound: CC(C)(C)NC(=O)[C@@H]1C[C@@H]2CCCC[C@@H]2CN1C[C@@H](O)[C@H](Cc1ccccc1)NC(=O)[C@H](CC(N)=O)NC(=O)c1ccc2ccccc2n1 [SQV, Saquinavir]
- Tm PRD25N [1]: 62.6 °C
- inhibition at 16 µM [2]: ≤ 50%
- Tm PRD29N [5]: 72.3 °C

- inhibition at 16 µM [2]: ≤ 50%
Compound: CCC[C@@]1(CCc2ccccc2)CC(O)=C([C@H](CC)c2cccc(NS(=O)(=O)c3ccc(C(F)(F)F)cn3)c2)C(=O)O1 [TPV, Tipranavir]

Compound: acetyl pepstatin [Ac-PEP]
- Tm PRD25N [1]: 58.8 °C
- Tm PRD29N [5]: 58.3 °C
- Kd [6]: 440 nM

Reference: PMC2720045 (Proteins, 2009)
